PMC6687188, “Novel lactate dehydrogenase inhibitors with in vivo efficacy against Cryptosporidium parvum” (PLoS Pathogens, 2019)
Positions of bridges follow the written chain, without caps; N, C: chain ends. Non-standard residues stand in square brackets, D forms with d. Residues, ends and D or L forms follow the SMILES beside them. ξ: configuration not given here. *: point of attachment. ξNMePhe(4-NMe2) = CNC(Cc1ccc(N(C)C)cc1)C(=O)O; Picolinoyl(3-OH) = O=C(c1ncccc1O)*; ξPip(4-oxo) = O=C1CCNC(C(=O)O)C1; Phg = N[CH](C(=O)O)c1ccccc1; Cbz = O=C(OCc1ccccc1)*; Abu = CC[CH](N)C(=O)O; CH2Cl = ClC*

Biological target: recombinant CpLDH protein (Cryptosporidium parvum, UniProt Q9GT92, F198L/K295E/R251K)

SMILES | MEAN CpLDH INHIBITION (%)
CC1=C\C(O)CC(=O)Cc2nc(co2)C(=O)N2CCC=C2C(=O)OC(C(C)C)C(C)/C=C/C(=O)NC/C=C\1.CCC1NC(=O)C(NC(=O)c2ncccc2O)C(C)OC(=O)C(c2ccccc2)NC(=O)C2CC(=O)CCN2C(=O)C(Cc2ccc(N(C)C)cc2)N(C)C(=O)C2CCCN2C1=O (stereo not drawn) [NSC125176] ({Picolinoyl(3-OH)}-T[Abu]P[ξNMePhe(4-NMe2)][ξPip(4-oxo)][Phg]; ester 1-C; configuration not given here) | -0.47
COc1ccc(C2c3cc4c(c(OC)c3CC3OCC(=O)C32)OCO4)cc1OC (stereo not drawn) [NSC126727] | -5.88
O=C1C(=O)c2ccccc2C(O)=C1CC=C(Cl)Cl [NSC126771] | -15.17
O=c1cc(O)ccn1[C@@H]1O[C@H](CO)[C@@H](O)[C@H]1O [NSC126849] | -22.36
COc1ccc(-c2cc(=O)c3c(O)cc(O)cc3o2)cc1OC [NSC128305] | -10.13
c1ccc2c(c1)nnn1c3cnccc3nc21 [NSC128734] | -52.88
CCC1=C(C[C@H]2NCCc3cc(OC)c(OC)cc32)C[C@H]2c3cc(OC)c(OC)cc3CCN2C1 [NSC129414] | -16.26
COC1=C(N)C(=O)c2nc(C)ccc2C1=O [NSC132493] | -117.70
CC[C@](C)(O)C(=O)O[C@H]1C(=O)O[C@@H]2C[C@H]3C(C)=CC(=O)[C@@H](O)[C@]3(C)[C@H]3[C@@]4(O)OC[C@]32[C@@H]1[C@@H](C)[C@H]4O [NSC132791] | -161.16
CC1(C)N=C(N)N=C(N)N1c1ccc(OCCCOc2ccccc2)c(Cl)c1.CCS(=O)(=O)O [NSC133071] | -57.79
Br.COC1CN(C)C(=Nc2cccc3ccccc23)S1 (stereo not drawn) [NSC135996] | -24.95
CC1=CC23C(COC(=O)C24CO4)C(C(=O)O)=CC3C1C.NCc1ccccc1 (stereo not drawn) [NSC136037] | -0.26
CC[C@@]1(O)C[C@H](O[C@H]2C[C@H](N(C)C)[C@H](O)[C@H](C)O2)c2c(O)c3c(c(O)c2[C@H]1O[C@H]1C[C@H](N(C)C)[C@H](O)[C@H](C)O1)C(=O)c1cccc(O)c1C3=O [NSC136044] | -159.43
CCCC(=O)OCC1OC(n2ccc(N)nc2=O)C(OC(=O)CCC)C1OC(=O)CCC (stereo not drawn) [NSC138429] | -38.75
CCS(=O)(=O)O.CN(C)C(=O)c1cccc(COc2ccc(N3C(N)=NC(N)=NC3(C)C)cc2Cl)c1 [NSC139105] | -28.54
Cc1cccc(NC(=O)/C=C/c2ccc([N+](=O)[O-])cc2)c1 [NSC139109] | -11.32
CN1c2c(nc(N)[nH]c2=O)NCC1CCNc1ccc(C(=O)N[C@@H](CCC(=O)[O-])C(=O)[O-])cc1.[Na+].[Na+] (stereo partly drawn) [NSC139490] | -2.06
CC(C)=CCC(OC(=O)C=C(C)C)C1=CC(=O)c2c(O)ccc(O)c2C1=O (stereo not drawn) [NSC140377] | -8.72
O=S(=O)(c1cccc(N=C=S)c1)c1cccc(N=C=S)c1 [NSC140911] | -0.44
Cl.NC(=O)c1cn(C2OC(CO)C(O)C2O)c2ncnc(N)c12 (stereo not drawn) [NSC143648] | -33.40
C=C1C(=O)OCC2C(C(=O)O)=CC3C(C)C(C)=CC123 (stereo not drawn) [NSC145150] | -64.31
CC(C)(C)CC(C)(C)NCC(O)COc1ccc(C(C)(C)c2ccc(OCC(O)CNC(C)(C)CC(C)(C)C)cc2)cc1.Cl (stereo not drawn) [NSC145366] | -111.71
O=C1NC(c2cccc3ccccc23)Nc2ccccc21 (stereo not drawn) [NSC145669] | 0.07
O=c1cnn(C2OC(CO)C(O)C2O)c(=S)[nH]1 (stereo not drawn) [NSC146268] | -43.94

SMILES | MEAN CpLDH INHIBITION (%)
COc1cc2c[n+](C)c3c4cc5c(cc4ccc3c2cc1OC)OCO5.[Cl-] [NSC146397] | -1.75
COc1ccc(C[C@@H]2NC[C@@H](O)[C@@H]2OC(C)=O)cc1.Cl [NSC147340] | -13.68
COC(=O)Nc1nc2ccc(Br)cc2[nH]1 [NSC154754] | -36.36
COc1cc2cc3c4cc(OC)c(OC)cc4cc[n+]3c(C)c2cc1OC.O=C([O-])CS(=O)(=O)O [NSC154890] | -11.41
N#CC1CC(c2ccccc2)Nc2cc(Cl)ccc2N1 (stereo not drawn) [NSC155595] | -11.00
COC(=O)[C@@H]1[C@H](O)[C@H](C)[C@H](O)[C@H](C)/C=C\C=C(/C)C(=O)Nc2c(C)c(OC(C)=O)c3c(c2O)C(=O)C(C)=C2OCOC(=C23)/C(C)=C/[C@@](C)(O)[C@H](O)[C@@H](C)[C@H]1OC(C)=O [NSC156215] | -35.58
CC(=O)OCc1cc(=O)n(C)c2c3c4c(cc12)c(C)cc(=O)n4CO3 [NSC157004] | -1.50
CCN(CC)CCCC(C)Nc1ccnc(/C=C/c2ccc(Cl)cc2)c1 (stereo not drawn) [NSC157389] | -3.33
Cc1ccc([S+](c2ccc(C)cc2)c2ccc(C)cc2)cc1 [NSC157930] | -72.47
CCOC(=O)/C=C/c1c(C)[nH]c(=O)[nH]c1=O [NSC159935] | -51.31
Cc1c2cnccc2c(C)c2c1c1ccccc1n2CCOC(=O)c1ccccc1 [NSC163443] | -14.23
CC(=O)[O][Sn]([CH2]c1ccccc1)([CH2]c1ccccc1)[CH2]c1ccccc1 [NSC164909] | -58.07
CCC[CH2][Sn]([CH2]CCC)([CH2]CCC)[O]c1cc(Cl)c(Cl)cc1Cl [NSC164914] | -26.61
COC(=O)[C@@]12OC[C@]34[C@H]([C@@H](O)[C@@H]1O)[C@@]1(C)CC(=O)C(O)=C(C)[C@@H]1C[C@H]3OC(=O)[C@H](OC(=O)/C=C(\C)C(C)C)[C@@H]24 [NSC165563] | -22.46
CCSC(=O)N1c2ccc(OC)cc2C=CC1C#N (stereo not drawn) [NSC165897] | -41.74
CN1CCN(CCNc2ccc(CO)c3sc4ccccc4c(=O)c23)CC1 [NSC166381] | -6.81
CSc1ccc(NC(=O)CCl)cc1 [NSC166464] | -7.16
CCOC(=O)C(CC(C)C)NC(=O)C(Cc1ccc(N(CCCl)CCCl)cc1)NC(C)=O (stereo not drawn) [NSC167780] | -51.52
CC(=O)OCCN1c2ccccc2Sc2cnccc21 [NSC168221] | -24.94
Cc1cc2nc(C=C(C(F)(F)F)C(F)(F)F)oc2cc1C [NSC168415] | -49.77
CCC[CH2][Pb]([Cl])([CH2]CCC)[CH2]CCC [NSC168597] | -54.94
CNC(=S)N/N=C/c1ccc([N+](=O)[O-])s1 [NSC169543] | -46.26
COC(=O)C1(C)CCCC2(C)c3cc(OC)ccc3C(=O)C(Br)C12 (stereo not drawn) [NSC169600] | -28.27
OCCNCCN1CCN(CCCN2c3ccccc3Sc3ccc(C(F)(F)F)cc32)CC1 [NSC169676] | -69.84

SMILES | MEAN CpLDH INHIBITION (%)
CC(C)C[C@H]1C(=O)N2CCC[C@H]2[C@]2(O)O[C@](NC(=O)[C@@H]3C=C4c5cccc6[nH]c(Br)c(c56)C[C@H]4N(C)C3)(C(C)C)C(=O)N12.CS(=O)(=O)O [NSC169774] | -107.83
C[C@H](CN1CC(=O)NC(=O)C1)N1CC(=O)NC(=O)C1 [NSC169779] | -13.00
COC(=O)[C@@]12OC[C@]34[C@H]([C@@H](O)[C@@H]1O)[C@@]1(C)CC(=O)C(O)=C(C)[C@@H]1C[C@H]3OC(=O)[C@H](OC(=O)C=C(C)C)[C@@H]24 [NSC172924] | -39.50
CC(=O)[O][Pb]([O]C(C)=O)([c]1ccccc1)[c]1ccccc1 [NSC173046] | -141.42
CC(C)CC(NC(=O)OCc1ccccc1)C(=O)NC(Cc1ccccc1)C(=O)CCl (stereo not drawn) [NSC173904] (Cbz-Leu-Phe-CH2Cl; configuration not given here) | -56.33
CC(=O)NC(CC(C)C)C(=O)NC(Cc1ccccc1)C(=O)CCl (stereo not drawn) [NSC173905] (Ac-Leu-Phe-CH2Cl; configuration not given here) | -39.37
CN(Cc1cnc2nc(N)nc(N)c2n1)c1ccc(C(=O)N[C@@H](CCC(=O)O)C(=O)O)c2ccccc12 [NSC174121] | -134.26
[Cl][Hg][c]1ccc2ccccc2c1 [NSC174163] | -16.59
CC(=O)[O][Hg][c]1c(C)c(C)c(C)c(C)c1C [NSC174176] | -60.94
CCCC(=O)[O-].[Na+] [NSC174280] | -5.75
N=N/C(=C\c1c(O)[nH]c2ccccc12)c1ccccc1 [NSC175274] | -25.99
Cc1ccc(C2NC(=O)c3ccccc3N2)s1 (stereo not drawn) [NSC175634] | -31.59
O=C1NC(c2cccc3ccccc23)Nc2ccc(Cl)cc21 (stereo not drawn) [NSC175636] | -17.73
N[C@H](C(=O)O)[C@H]1ON=C(Cl)[C@H]1O [NSC176324] | -9.23
C(=C/c1nc2ccccc2o1)/c1ccc2c(c1)OCO2 [NSC176655] | -23.23
NC(N)=NCCCS(=O)(=O)Nc1ccc(Nc2c3ccccc3nc3cc([N+](=O)[O-])ccc23)cc1 [NSC177365] | -212.36
COc1ccc(O)c2c(=O)c3c(OC)cc4c(c3oc12)[C@@H]1C=CO[C@@H]1O4 [NSC178249] | -31.06
CCC[CH2][Sn]1([CH2]CCC)[S]CC[N]1S(=O)(=O)c1ccc(C)cc1 [NSC183359] | -29.84
C[C@H]1O[C@@H](c2ccc3c(c2O)C(=O)C2=C(C3=O)[C@@]3(O)C(=O)C[C@](C)(O)C[C@@]3(O)C=C2)C[C@@H](O)[C@@H]1O [NSC184398] | -31.06
C[n+]1cc2cc(O)c(O)cc2c2ccc3cc(O)c(O)cc3c21.Cl.[Cl-].c1ccncc1 [NSC184403] | -44.28
NC(=S)N/N=C/c1ccc(OC(=O)COc2ccccc2Cl)cn1 [NSC185056] | -5.23
Oc1ccc(/C=N/NC(=S)Nc2cccnc2)nc1 [NSC185065] | -8.17
Cc1cc(C)c(NC(=O)/C=C/c2ccccc2)c(C)c1 [NSC191384] | -34.30
Cc1ccc(NC(=O)/C=C/c2ccccc2)c(C)c1 [NSC191389] | -64.07
